# Measurements reported in US12447137B2, “Composition for prevention, amelioration, or treatment of cancer” (EWHA UNIVERSITY—INDUSTRY COLLABORATION FOUNDATION, priority 2019, dated 2025).
# Columns and labels:
# BT549 cell line = experiment: Clonogenic assay; format: cell-based, human; settings: BT549, 10 μM; FIG. 2B
# Method: (§1) The breast cancer cell line of Experimental Method 1 was dispensed into a 6-well plate at a density of 1 to 2×10^3 cells/well. After the cells were sufficiently attached, they were treated with the compound of Production Example 6 at a concentration of 0 to 30 μM and cultured for 10 days to 14 days. Next, the cultured cells were fixed with 4% formaldehyde and stained with 1% crystal violet, and the colonies were counted under a microscope.
# MDA-MB-231 cell line = experiment: Clonogenic assay; format: cell-based, human; settings: MDA-MB-231, 10 μM; FIG. 2B
# Method: as §1
# p-AMPK (Thr172) [1] = experiment: AMPK activation by p-AMPK (Thr172) Western blot in BT549 cells; format: cell-based, human; settings: BT549, 10 μM, 24 hours; FIG. 3B
# Method: (§2) [3-1] The breast cancer cell line of Experimental Method 1 above was treated with the compound of Production Example 6 at a concentration of 0 to 30 μM, and then cultured for 24 hours. Thereafter, the cells were harvested and lysed in RIPA buffer, and the protein was electrophoresed by SDS-PAGE, and then the expression level of the protein was analyzed using antibodies specific for AMPK and phospho-AMPK (Thr172). GAPDH or β-actin was used as a loading control for protein quantification.
# [3-2] The three breast cancer cell lines (4T1, BT549, and MDA-MB-231) of Experimental Method 1 were treated with each of the compound of Production Example 6 and 13 compounds, including the compounds of Production Examples 1 to 5 and 8 to 15 having a similar structure (YE-01, 02, 03, 04, 05, 08, 09, 10, 11, 12, 13, 14 and 15), at a concentration of 10 μM, and then cultured for 24 hours. […] Thereafter, the cells were harvested and lysed in RIPA buffer, and the protein was electrophoresed by SDS-PAGE, and then the expression level of the protein was analyzed using antibodies specific for AMPK and phospho-AMPK (Thr172). GAPDH or β-actin was used as a loading control for protein quantification.
# [2] = tested on: EMT protein markers α-SMA, Vimentin, ZEB-1 and Slug; experiment: EMT protein marker Western blot, TGF-β1-treated BT549 cells; format: cell-based, human; settings: BT549, with TGF-β1; FIG. 7A
# Method: (§3) The culture medium of the breast cancer cell line of Experimental Method 1 was replaced with a serum-free medium. Then, the cells were treated with 2 ng/mL of TGF-β1 and the compound of Preparation Example 6 and cultured for 20 to 24 hours. Thereafter, as described in Experimental Method 3, the expression level of the protein was measured using an antibody specific for the EMT-related protein.
# p-AMPK (Thr172) [3] = experiment: AMPK activation by p-AMPK (Thr172) Western blot in MDA-MB-231 cells; format: cell-based, human; settings: 24 hours
# Method: as §2
# [3-2] The three breast cancer cell lines (4T1, BT549, and MDA-MB-231) of Experimental Method 1 were treated with each of the compound of Production Example 6 and 13 compounds, including the compounds of Production Examples 1 to 5 and 8 to 15 having a similar structure (YE-01, 02, 03, 04, 05, 08, 09, 10, 11, 12, 13, 14 and 15), at a concentration of 10 μM, and then cultured for 24 hours. In addition, each of two types of gastric cancer cell lines, brain cancer cell lines and pancreatic cancer cell lines was treated with the compound of Production Example 6 or the compound of Production Example 8 having a similar structure at a concentration of 10 μM and then cultured for 12 hours. Thereafter, the cells were harvested and lysed in RIPA buffer, and the protein was electrophoresed by SDS-PAGE, and then the expression level of the protein was analyzed using antibodies specific for AMPK and phospho-AMPK (Thr172). GAPDH or β-actin was used as a loading control for protein quantification.
# [4] = tested on: EMT protein markers α-SMA, Vimentin, ZEB-1 and Slug; experiment: EMT protein marker Western blot, TGF-β1-treated MDA-MB-231 cells; format: cell-based, human; settings: MDA-MB-231, with TGF-β1; FIG. 7A
# Method: as §3
# [5] = tested on: EMT protein markers α-SMA, Vimentin, ZEB-1 and Slug; experiment: EMT protein marker Western blot, TGF-β1-treated 4T1 cells; format: cell-based, mouse; settings: 4T1, with TGF-β1; FIG. 7A
# Method: as §3
# secreted MMP2 and MMP9 = experiment: Secreted MMP2 and MMP9 levels, TGF-β1-treated BT549 cells; format: cell-based, human; settings: BT549, with TGF-β1; FIG. 7B
# Method: as §3
# [6] = tested on: cleaved-PARP, Bcl-2 and Cyclin D1 proteins; experiment: Apoptosis marker Western blot in MDA-MB-231 cell line; format: cell-based, human; settings: FIG. 5
# [7] = tested on: 4T1-luc orthotopic graft (fat pad, s.c.); experiment: Tumor (lung) metastasis in orthotopic animal model, IVIS luminescence; format: in vivo, mouse; settings: 20 mg/kg intraperitoneal at 2-day intervals; compared to Vehicle; FIG. 9A, 9B
# From the text: After 4-week-old athymic nude mice (female) were purchased, only healthy mice were selected while the mice were adapted to the environment of the animal breeding room for 7 days. For identification of each mouse, the ears were marked using an ear punch. In addition, the breeding box was identified by attaching a mouse identification card describing the test number, test substance name, test item, receipt date, test date, test content, and the person in charge of the test. The environment of the animal breeding room was maintained at a temperature of 22±3° C., a relative humidity of 50±20%, 10 to 15 ventilations/hour, a 12-hour light (8:30 to 20:30)/dark cycle, and an illuminance of 150 to 300 lux. In addition, the animals were fed feed and drinking water during the breeding period, and quarantined during the acclimatization and testing periods. […]
# During a period ranging from the day the mouse breast cancer cell line 4T1-luc cell line was injected to the end of the experiment (dissection date), lung metastasis of the cancer cell line was checked at intervals of 1 to 2 days. After the animal model was anesthetized by inhalation with 2.5% isoflurane, luminescence intensity was measured using an in-vivo imaging system (IVIS). […]
compound,measurement,setting,value
"COc1ccc(OC)c(/C=C/C(=O)c2ccc(NS(=O)(=O)c3ccc(Cl)cc3)cc2)c1 [Production Example 6, (E)-4-chloro-N-(4-(3-(2,5-dimethoxyphenyl)acryloyl)phenyl)benzenesulfonamide]",colony formation,BT549 cell line,significantly reduced
same,colony formation,MDA-MB-231 cell line,significantly reduced
same,p-AMPK level,p-AMPK (Thr172) [1],effectively increased
same,Slug protein,[2],decreased
same,Vimentin protein,[2],decreased
same,ZEB-1 protein,[2],decreased
same,α-SMA protein,[2],decreased
same,phospho-AMPK protein,"p-AMPK (Thr172) [3]; MDA-MB-231, 0 to 30 μM, FIG. 5",increased in a concentration-dependent manner
same,p-AMPK level,"p-AMPK (Thr172) [3]; MDA-MB-231, 10 μM, FIG. 3B",effectively increased
same,Slug protein,[4],decreased
same,Vimentin protein,[4],decreased
same,ZEB-1 protein,[4],decreased
same,α-SMA protein,[4],decreased
same,Slug protein,[5],decreased
same,Vimentin protein,[5],decreased
same,ZEB-1 protein,[5],decreased
same,α-SMA protein,[5],decreased
same,level of secreted MMP2,secreted MMP2 and MMP9,significantly decreased
same,level of secreted MMP9,secreted MMP2 and MMP9,significantly decreased
same,level of Bcl-2 protein,[6],decreased
same,level of Cyclin D1 protein,[6],decreased
same,level of apoptosis marker cleaved-PARP protein,[6],increased
same,luminescence intensity in the lung (4T1-luc lung metastasis),[7],significantly decreased
